Measured values published in patent US20240116985A1, “STAPLED PEPTIDES AND METHODS THEREOF” (priority 2020, published 2024).
pIC50: −log10 of the molar value. Converted amounts (≈) assume the structure as drawn. Like-named read-outs stand apart in the source and are kept apart here.

Columns and labels:
[1] = target: T1, full-length beta-Catenin (Uniprot ID P35222) (Homo sapiens, UniProt P35222); test: Fluorescence polarization IC50 (beta-catenin / 5FAM-TCF4 10-53 competition); type: binding; details: read-out: beta-Catenin FP IC50
T1 construct: 10 nM full-length beta-Catenin (Uniprot ID P35222)
T1 sequence (P35222 1-781): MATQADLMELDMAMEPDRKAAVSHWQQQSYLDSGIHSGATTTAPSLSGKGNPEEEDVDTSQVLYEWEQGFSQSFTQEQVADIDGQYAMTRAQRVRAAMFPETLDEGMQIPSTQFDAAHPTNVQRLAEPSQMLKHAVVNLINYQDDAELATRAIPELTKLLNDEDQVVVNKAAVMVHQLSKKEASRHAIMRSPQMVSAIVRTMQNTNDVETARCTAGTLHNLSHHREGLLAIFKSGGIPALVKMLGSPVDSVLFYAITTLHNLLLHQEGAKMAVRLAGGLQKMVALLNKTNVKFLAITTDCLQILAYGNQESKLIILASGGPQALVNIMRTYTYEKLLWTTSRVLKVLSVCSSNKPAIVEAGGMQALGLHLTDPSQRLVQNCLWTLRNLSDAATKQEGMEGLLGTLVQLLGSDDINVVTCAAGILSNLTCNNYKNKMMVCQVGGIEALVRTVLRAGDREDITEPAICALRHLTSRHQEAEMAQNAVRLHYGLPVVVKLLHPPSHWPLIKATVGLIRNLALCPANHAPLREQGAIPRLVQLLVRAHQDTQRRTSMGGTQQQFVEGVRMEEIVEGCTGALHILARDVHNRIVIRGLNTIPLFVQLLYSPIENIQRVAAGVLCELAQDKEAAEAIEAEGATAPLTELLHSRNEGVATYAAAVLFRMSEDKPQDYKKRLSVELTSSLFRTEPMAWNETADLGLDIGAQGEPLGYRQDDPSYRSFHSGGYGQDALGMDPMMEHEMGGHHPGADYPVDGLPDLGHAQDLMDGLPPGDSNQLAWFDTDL

CHI Log D procedure = type: physicochemical; details: pH 7.4, CHI Log D
Solubility in PBS = type: physicochemical; details: Solubility (uM)
Summary of the method: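 The PBS solution was ultracentrifuged and the supernatant analyzed by HPLC. Its peak area was divided by that of a 50 μM peptide DMSO reference injection and multiplied by 50 uM to give solubility.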

[2] = target: T2, beta-catenin/TCF4 engagement (Homo sapiens, UniProt P35222); test: Nano-BRET target engagement assay (B-cat-Halo & TCF4-Luc in HEK293 cells); type: cell-based
T2 construct: expressed in transfected cells; host or cells: HEK293
T2 sequence (P35222 1-781): T1 sequence (P35222 1-781)

[3] = absolute IC50, read-out: NanoBRET Abs IC50

Compound	pIC50 [1]	chromatographic logD (CHI Log D procedure)	Solubility (Solubility in PBS) [µM]	pIC50 ([2]; read-out: NanoBRET Abs IC50)	pIC50 ([2]; read-out: NanoBRET IC50)	solubility at 15 min (Solubility in PBS) [µM]	pIC50 ([1]; fluorescence polarization)	pIC50 [2, 3]
CC(=O)N1CCC[C@]12CC=CCCCC1(CCCC=CCCCOC(=O)N3CC[C@@](C(=O)N[C@@H](Cc4ccccc4Cl)C(=O)N[C@@H](Cc4csc5ccccc45)C(=O)N[C@@H](CCC(N)=O)C(N)=O)(C3)NC(=O)[C@H](CO)NC(=O)[C@H](Cc3ccc(C(F)(F)F)cc3)NC(=O)[C@H](C)NC(=O)[C@H](C)NC(=O)[C@H](CC(=O)O)NC(=O)[C@H](CC(=O)O)NC1=O)NC(=O)[C@H](CC1CCCCC1)NC(=O)[C@H](CC(=O)O)NC2=O (stereo partly drawn) [I-1120, Ac-PL3-Asp-Cha-B5-Asp-Asp-Ala-Ala-4F3MeF-Ser-PyrS2-2C1F-BztA-Gln-NH2]	7.07	2.54	41 (≈ 82.6 µg/mL)	< 4.70	–	–	–	–
COCCOCCOCCOCCOCCOCCOCCOCCC(=O)NCCCC[C@@H]1NC(=O)[C@H](C)NC(=O)[C@H](CC(=O)O)NC(=O)[C@H](CC(=O)O)NC(=O)C2(CCCC=CCCCOC(=O)N3CC[C@@](C(=O)N[C@@H](Cc4ccsc4)C(=O)N[C@@H](Cc4csc5ccccc45)C(=O)N[C@@H](CCC(N)=O)C(N)=O)(C3)NC(=O)[C@H](CC(N)=O)NC(=O)[C@H](Cc3ccccc3)NC1=O)CCCC=CC[C@]1(CCCN1C(C)=O)C(=O)N[C@@H](CC(=O)O)C(=O)N[C@@H](CC(C)(C)C)C(=O)N2 (stereo partly drawn) [I-896, Ac-PL3-Asp-Npg-B5-Asp-Asp-Ala-[mPEG8]Lys-Phe-Asn-PyrS2-3Thi-BztA-Gln-NH2]	7.66	1.45	–	< 4.70	–	30 (≈ 71.1 µg/mL)	–	–
CC[C@H](C)[C@@H]1NC(=O)[C@H](CC(=O)O)NC(=O)[C@]2(CC=CCCCC3(CCCC=CCCCCCC[C@@](C)(C(=O)N[C@@H](Cc4ccccc4OC)C(=O)N[C@@H](Cc4csc5ccccc45)C(=O)N[C@@H](Cc4c[nH]cn4)C(N)=O)NC(=O)[C@H](CC(N)=O)NC(=O)[C@H](Cc4ccccc4)NC(=O)[C@H](C)NC(=O)[C@H](C)NC(=O)[C@H](CCC(=O)O)NC(=O)[C@H](CC(=O)O)NC3=O)NC1=O)CCCN2C(C)=O (stereo partly drawn) [I-512, Ac-PL3-Asp-Ile-B5-Asp-Glu-Ala-Ala-Phe-Asn-S8-2OMeF-BztA-His-NH2]	–	2.44	17 (≈ 32.4 µg/mL)	–	–	–	7.70	4.91
CC(=O)N1CCC[C@]12CC=CCCCC1(CCCC=CCCCOC(=O)N3CC[C@@](C(=O)N[C@@H](Cc4ccccc4Cl)C(=O)N[C@@H](Cc4csc5ccccc45)C(=O)N[C@@H](CCC(N)=O)C(N)=O)(C3)NC(=O)[C@H](CO)NC(=O)[C@H](Cc3ccccc3)NC(=O)[C@H](C)NC(=O)[C@H](C)NC(=O)[C@H](CC(=O)O)NC(=O)[C@H](CC(=O)O)NC1=O)NC(=O)[C@H](Cc1ccc3ccccc3c1)NC(=O)[C@H](CC(=O)O)NC2=O (stereo partly drawn) [I-1109, Ac-PL3-Asp-2NapA-B5-Asp-Asp-Ala-Ala-Phe-Ser-PyrS2-2C1F-BztA-Gln-NH2]	7.62	2.31	45 (≈ 89.5 µg/mL)	< 4.70	–	–	–	–

More lines, now with the values ahead:

pIC50 [1]	chromatographic logD (CHI Log D procedure)	Solubility (Solubility in PBS) [µM]	pIC50 ([2]; read-out: NanoBRET Abs IC50)	pIC50 ([2]; read-out: NanoBRET IC50)	solubility at 15 min (Solubility in PBS) [µM]	pIC50 ([1]; fluorescence polarization)	pIC50 [2, 3]	Compound
8.10	2.3	39 (≈ 70.4 µg/mL)	4.53	4.77	–	–	–	CC(=O)N1CCC[C@]12CC=CCCCC1(CCCC=CCCCOC(=O)N3CC[C@@](C(=O)N[C@@H](Cc4ccsc4)C(=O)N[C@@H](Cc4csc5ccccc45)C(N)=O)(C3)NC(=O)[C@H](CC(N)=O)NC(=O)[C@H](Cc3ccccc3)NC(=O)[C@H](C)NC(=O)[C@H](C)NC(=O)[C@H](CCC(=O)O)NC(=O)[C@H](CC(=O)O)NC1=O)NC(=O)[C@H](CC(C)(C)C)NC(=O)[C@H](CC(=O)O)NC2=O (stereo partly drawn) [I-786, Ac-PL3-Asp-Npg-B5-Asp-Glu-Ala-Ala-Phe-Asn-PyrS2-3Thi-BztA-NH2]
8.05	2.16	47 (≈ 86.7 µg/mL)	–	–	–	–	5.05	CC(=O)N1CCC[C@]12CC=CCCCC1(CCCC=CCCCOC(=O)N3CC[C@@](C(=O)N[C@@H](Cc4ccccc4)C(=O)N[C@@H](Cc4csc5ccccc45)C(=O)N[C@@H](CO)C(N)=O)(C3)NC(=O)[C@H](CO)NC(=O)[C@H](Cc3ccccc3)NC(=O)[C@H](C)NC(=O)[C@H](C)NC(=O)[C@H](CC(=O)O)NC(=O)[C@H](CC(=O)O)NC1=O)NC(=O)[C@H](CC(C)(C)C)NC(=O)[C@H](CC(=O)O)NC2=O (stereo partly drawn) [I-1099, Ac-PL3-Asp-Npg-B5-Asp-Asp-Ala-Ala-Phe-Ser-PyrS2-Phe-BztA-Ser-NH2]
